Reference: ChEMBL document CHEMBL3045349, “A comparative study on the interference of two herbicides in wheat and italian ryegrass and on their antioxidant activities and detoxification rates” (J Agric Food Chem, 2011)

How the values were obtained:
Triticum aestivum [1] = test: Effect on antioxidant enzyme system in Triticum aestivum (wheat) shoots assessed as dehydroascorbate reductase activity per mg protein compound administered at rate of 14 mf/flat measured 72 hr post treatment (reference value: 4.7 nmol/s per mg protein); format: functional
Shoot [2] = test: Drug level in Lolium multiflorum (Italian ryegrass) shoots compound administered at rate of 14 mf/flat measured 24 hr post treatment by HPLC; format: ADME
Shoot [3] = test: Drug level in Lolium multiflorum (Italian ryegrass) shoots compound administered at rate of 14 mf/flat measured 96 hr post treatment by HPLC; format: ADME
Triticum aestivum [4] = test: Effect on MDA content in Triticum aestivum (wheat) shoots compound administered at rate of 14 mf/flat measured 24 hr post treatment (reference value: 0.054 uM/L); format: functional
Triticum aestivum [5] = test: Effect on antioxidant enzyme system in Triticum aestivum (wheat) shoots assessed as glutathione reductase activity per mg protein compound administered at rate of 14 mf/flat measured 72 hr post treatment (reference value: 1.1 nmol/s per mg protein); format: functional
Triticum aestivum [6] = test: Increase in antioxidant enzyme system in Triticum aestivum (wheat) shoots assessed as increase in dehydroascorbate reductase activity compound administered at rate of 14 mf/flat measured 24 hr post treatment; format: functional
Lolium multiflorum [7] = test: Effect on antioxidant enzyme system in Lolium multiflorum (Italian ryegrass) shoots assessed as glutathione reductase activity per mg protein compound administered at rate of 14 mf/flat measured 24 hr post treatment (reference value: 1.1 nmol/s per mg protein); format: functional
Triticum aestivum [8] = test: Effect on antioxidant enzyme system in Triticum aestivum (wheat) shoots assessed as ascorbate peroxidase activity per mg protein compound administered at rate of 14 mf/flat measured 48 hr post treatment (reference value: 18.4 nmol/s per mg protein); format: functional
Triticum aestivum [9] = test: Effect on antioxidant enzyme system in Triticum aestivum (wheat) shoots assessed as glutathione S-transferase activity per mg protein compound administered at rate of 14 mf/flat measured […] post treatment (reference value: 2.4 nmol/s per mg protein); format: functional
Triticum aestivum [10] = test: Increase in antioxidant enzyme system in Triticum aestivum (wheat) shoots assessed as increase in dehydroascorbate reductase activity compound administered at rate of 14 mf/flat measured 48 hr post treatment; format: functional
Shoot [11] = test: Drug level in Triticum aestivum (wheat) shoots compound administered at rate of 14 mf/flat measured 24 hr post treatment by HPLC; format: ADME
Lolium multiflorum [12] = test: Effect on photosynthetic activity in Lolium multiflorum (Italian ryegrass) shoots assessed as dark respiration rate measured by CO2 production compound administered at rate of 14 mf/flat measured 72 hr post treatment (reference value: -1.32 umol/m2/s); format: functional
Lolium multiflorum [13] = test: Increase in MDA content in Lolium multiflorum (Italian ryegrass) shoots compound administered at rate of 14 mf/flat measured 72 hr post treatment; format: functional
Triticum aestivum [14] = test: Effect on photosynthetic activity in Triticum aestivum (wheat) shoots assessed as dark respiration rate measured by CO2 production compound administered at rate of 14 mf/flat measured 24 hr post treatment (reference value: -1.35 umol/m2/s); format: functional
Lolium multiflorum [15] = test: Increase in antioxidant enzyme system in Lolium multiflorum (Italian ryegrass) shoots assessed as increase in ascorbate peroxidase activity compound administered at rate of 14 mf/flat measured 24 hr post treatment; format: functional
Triticum aestivum [16] = test: Effect on photosynthetic activity in Triticum aestivum (wheat) shoots assessed as leaf net photosynthesis rate measured by CO2 production compound administered at rate of 14 mf/flat measured 24 hr post treatment (reference value: 1.35 umol/m2/s); format: functional
Triticum aestivum [17] = test: Effect on antioxidant enzyme system in Triticum aestivum (wheat) shoots assessed as dehydroascorbate reductase activity per mg protein compound administered at rate of 14 mf/flat measured 48 hr post treatment (reference value: 4.6 nmol/s per mg protein); format: functional
Triticum aestivum [18] = test: Effect on antioxidant enzyme system in Triticum aestivum (wheat) shoots assessed as glutathione reductase activity per mg protein compound administered at rate of 14 mf/flat measured 24 hr post treatment (reference value: 1.1 nmol/s per mg protein); format: functional
Shoot [19] = test: Drug level in Lolium multiflorum (Italian ryegrass) shoots compound administered at rate of 14 mf/flat measured 48 hr post treatment by HPLC; format: ADME
Lolium multiflorum [20] = test: Effect on antioxidant enzyme system in Lolium multiflorum (Italian ryegrass) shoots assessed as dehydroascorbate reductase activity per mg protein compound administered at rate of 14 mf/flat measured 48 hr post treatment (reference value: 3.6 nmol/s per mg protein); format: functional
Lolium multiflorum [21] = test: Effect on antioxidant enzyme system in Lolium multiflorum (Italian ryegrass) shoots assessed as ascorbate peroxidase activity per mg protein compound administered at rate of 14 mf/flat measured 24 hr post treatment (reference value: 12.5 nmol/s per mg protein); format: functional
Lolium multiflorum [22] = test: Effect on MDA content in Lolium multiflorum (Italian ryegrass) shoots compound administered at rate of 14 mf/flat measured 24 hr post treatment (reference value: 0.68 uM/L); format: functional
Lolium multiflorum [23] = test: Effect on photosynthetic activity in Lolium multiflorum (Italian ryegrass) shoots assessed as dark respiration rate measured by CO2 production compound administered at rate of 14 mf/flat measured 24 hr post treatment (reference value: -1.51 umol/m2/s); format: functional
Lolium multiflorum [24] = test: Effect on MDA content in Lolium multiflorum (Italian ryegrass) shoots compound administered at rate of 14 mf/flat measured 48 hr post treatment (reference value: 0.65 uM/L); format: functional
Lolium multiflorum [25] = test: Effect on photosynthetic activity in Lolium multiflorum (Italian ryegrass) shoots assessed as leaf net photosynthesis rate measured by CO2 production compound administered at rate of 14 mf/flat measured 48 hr post treatment (reference value: 4.89 umol/m2/s); format: functional
Lolium multiflorum [26] = test: Effect on antioxidant enzyme system in Lolium multiflorum (Italian ryegrass) shoots assessed as catalase activity per mg protein compound administered at rate of 14 mf/flat measured 72 hr post treatment (reference value: 0.12 nmol/s per mg protein); format: functional
Triticum aestivum [27] = test: Effect on photosynthetic activity in Triticum aestivum (wheat) shoots assessed as leaf net photosynthesis rate measured by CO2 production compound administered at rate of 14 mf/flat measured 72 hr post treatment (reference value: 1.46 umol/m2/s); format: functional
Lolium multiflorum [28] = test: Effect on antioxidant enzyme system in Lolium multiflorum (Italian ryegrass) shoots assessed as glutathione reductase activity per mg protein compound administered at rate of 14 mf/flat measured 72 hr post treatment (reference value: 1.2 nmol/s per mg protein); format: functional
Lolium multiflorum [29] = test: Effect on photosynthetic activity in Lolium multiflorum (Italian ryegrass) shoots assessed as dark respiration rate measured by CO2 production compound administered at rate of 14 mf/flat measured 48 hr post treatment (reference value: -1.68 umol/m2/s); format: functional
Lolium multiflorum [30] = test: Effect on photosynthetic activity in Lolium multiflorum (Italian ryegrass) shoots assessed as leaf net photosynthesis rate measured by CO2 production compound administered at rate of 14 mf/flat measured 72 hr post treatment (reference value: 4.45 umol/m2/s); format: functional
Triticum aestivum [31] = test: Increase in antioxidant enzyme system in Triticum aestivum (wheat) shoots assessed as increase in ascorbate peroxidase activity compound administered at rate of 14 mf/flat measured 48 hr post treatment; format: functional
Shoot [32] = test: Drug level in Lolium multiflorum (Italian ryegrass) shoots compound administered at rate of 14 mf/flat measured 72 hr post treatment by HPLC; format: ADME

Row | Compound | Activity (Triticum aestivum [1]) | Drug uptake (Shoot [2]) | Drug uptake (Shoot [3]) | Activity (Triticum aestivum [4]) | Activity (Triticum aestivum [5]) | Activity (Triticum aestivum [6]) | Activity (Lolium multiflorum [7]) | Activity (Triticum aestivum [8]) | Activity (Triticum aestivum [9]) | Activity (Triticum aestivum [10]) | Drug uptake (Shoot [11]) | Activity (Lolium multiflorum [12]) | Activity (Lolium multiflorum [13]) | Activity (Triticum aestivum [14]) | Activity (Lolium multiflorum [15]) | Activity (Triticum aestivum [16]) | Activity (Triticum aestivum [17]) | Activity (Triticum aestivum [18]) | Drug uptake (Shoot [19]) | Activity (Lolium multiflorum [20]) | further results
1 | CCNc1nc(Cl)nc(NC(C)C)n1 [ATRAZINE] | 5.7 nmol/s/mg protein | 6 ppm | 4.22 ppm | 0.55 µM | 1 nmol/s/mg protein | 20% | 1.4 nmol/s/mg protein | 23.5 nmol/s/mg protein | 2.5 nmol/s/mg protein | 15% | 1.38 ppm | -1.67 micromol/m2/s | 10% | -0.51 micromol/m2/s | 20% | -0.52 micromol/m2/s | 5.3 nmol/s/mg protein | 1.5 nmol/s/mg protein | 5.9 ppm | 3.5 nmol/s/mg protein | Activity (Lolium multiflorum [21]): 15 nmol/s/mg protein; Activity (Lolium multiflorum [22]): 0.85 µM; Activity (Lolium multiflorum [23]): -1.32 micromol/m2/s; Activity (Lolium multiflorum [24]): 0.85 µM; Activity (Lolium multiflorum [25]): -1.04 micromol/m2/s; Activity (Lolium multiflorum [26]): 0.13 nmol/s/mg protein; Activity (Triticum aestivum [27]): 0 micromol/m2/s; Activity (Lolium multiflorum [28]): 1.2 nmol/s/mg protein; Activity (Lolium multiflorum [29]): -1.56 micromol/m2/s; Activity (Lolium multiflorum [30]): -1.35 micromol/m2/s; Activity (Triticum aestivum [31]): 28%; Drug uptake (Shoot [32]): 4.52 ppm
2 | O=[N+]([O-])c1ccc(Oc2ccc(C(F)(F)F)cc2[N+](=O)[O-])cc1 [FLUORODIFEN] | 6.8 nmol/s/mg protein | 1.4 ppm | 0.36 ppm | 0.05 µM | 1 nmol/s/mg protein | 9% | 1.9 nmol/s/mg protein | 20.2 nmol/s/mg protein | 2.3 nmol/s/mg protein | 11% | 1.64 ppm | -1.06 micromol/m2/s | 10% | -0.82 micromol/m2/s | 11% | 1.15 micromol/m2/s | 5.1 nmol/s/mg protein | 1.5 nmol/s/mg protein | 1.17 ppm | 4.3 nmol/s/mg protein | Activity (Lolium multiflorum [21]): 13.9 nmol/s/mg protein; Activity (Lolium multiflorum [22]): 0.64 µM; Activity (Lolium multiflorum [23]): -1.42 micromol/m2/s; Activity (Lolium multiflorum [24]): 0.74 µM; Activity (Lolium multiflorum [25]): 4.42 micromol/m2/s; Activity (Lolium multiflorum [26]): 0.13 nmol/s/mg protein; Activity (Triticum aestivum [27]): 1.25 micromol/m2/s; Activity (Lolium multiflorum [28]): 1.1 nmol/s/mg protein; Activity (Lolium multiflorum [29]): -1.36 micromol/m2/s; Activity (Lolium multiflorum [30]): 4.05 micromol/m2/s; Activity (Triticum aestivum [31]): 10%; Drug uptake (Shoot [32]): 0.46 ppm
